From patent US9783532B2, “Molecules having certain pesticidal utilities, and intermediates, compositions, and processes related thereto” (Dow AgroSciences LLC, priority 2013, dated 2017)
Read-outs that look alike come from different tables or passages of the source.

Key:
[1] = tested on: Cabbage Looper (Trichoplusia ni) ("CL"); test: Bioassay on cabbage looper (CL), 128-well diet tray assay; type: in vivo; settings: for mortality at 50 µg/cm2: 168 h, 50 μg/cm^2 on artificial diet, second instar CL larvae, 25° C., five to seven days, average of eight wells, read-out: CL % Control (or Mortality) rating; for pest or weed control at 50 µg/cm2: activity rating class, read-out: CL (Biological Results, Insect species)
Summary of the method: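 Percent mortality, averaged across eight replicate wells, was read after five to seven days at 25 °C under a 14:10 photoperiod. Each well held one to five second-instar T. ni on diet carrying a dried 50 μg/cm^2 dose applied in acetone-water 90:10.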

[2] = tested on: Beet Armyworm (Spodoptera exigua) ("BAW"); test: Bioassay on beet armyworm (BAW), 128-well diet tray assay; type: in vivo; settings: for mortality at 50 µg/cm2: 168 h, 50 μg/cm^2 on artificial diet, second instar BAW larvae, 25° C., five to seven days, average of eight wells, read-out: BAW % Control (or Mortality) rating; for pest or weed control at 50 µg/cm2: activity rating class, read-out: BAW (Biological Results, Insect species)
Summary of the method: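 Percent mortality, averaged across eight wells, was read after five to seven days at 25° C. under 14:10 light-dark. Each well held one to five second-instar larvae on artificial diet that had been treated with 50 μg/cm^2 compound in 90:10 acetone-water and dried.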

Row | Structure (SMILES) | mortality at 50 µg/cm2 [1] | mortality at 50 µg/cm2 [2] | pest or weed control at 50 µg/cm2 ([1]; Table ABC (PC)) | pest or weed control at 50 µg/cm2 ([2]; Table ABC (PC)) | further results
1 | Cc1ccccc1N1C(=O)CS/C1=N\C(=O)NCCCc1cccc(-c2ncn(-c3ccc(OC(F)(F)F)cc3)n2)c1 [P118, (Z)-1-(4-oxo-3-(o-tolyl)thiazolidin-2-ylidene)-3-(3-(3-(1-(4-(trifluoromethoxy)phenyl)-1H-1,2,4-triazol-3-yl)phenyl)propyl)urea] | 50 to 100% | 50 to 100% |  |  | 
2 | CC(C)c1cc(F)ccc1N1C(=O)CS/C1=N\C(=O)NCCCc1cccc(-c2ncn(-c3ccc(OC(F)(F)F)cc3)n2)c1 [P129, (Z)-1-(3-(4-fluoro-2-isopropylphenyl)-4-oxothiazolidin-2-ylidene)-3-(3-(3-(1-(4-(trifluoromethoxy)phenyl)-1H-1,2,4-triazol-3-yl)phenyl)propyl)urea] | 50 to 100% | 50 to 100% |  |  | 
3 | CC(C)c1cc(F)ccc1N1C(=O)CS/C1=N\C(=O)NCc1cccc(-c2ncn(-c3ccc(OC(F)(F)F)cc3)n2)c1 [FB33, (Z)-1-(3-(4-fluoro-2-isopropylphenyl)-4-oxothiazolidin-2-ylidene)-3-(3-(1-(4-(trifluoromethoxy)phenyl)-1H-1,2,4-triazol-3-yl)benzyl)urea] |  |  |  |  | pest or weed control at 50 µg/cm2 ([1]; Table ABC (FB)): 50 to 100%; pest or weed control at 50 µg/cm2 ([2]; Table ABC (FB)): 50 to 100%
4 | CCc1ccccc1NC(=S)NC(=O)NCCCCc1ccc(-c2ncn(-c3ccc(OC(F)(F)F)cc3)n2)cc1 [PC145, 1-[(2-ethylphenyl)carbamothioyl]-3-[4-[4-[1-[4-(trifluoromethoxy)phenyl]-1H-1,2,4-triazol-3-yl]phenyl]butyl]urea] |  |  | 50 to 100% | 50 to 100% | 
5 | Cc1ccc(C(C)C)c(N2C(=O)C(C(C)(C)O)S/C2=N\C(=O)NCCc2ccc(-c3ncn(-c4ccc(OC(F)(F)F)cc4)n3)cc2)c1 (stereo not drawn) [FB72, (Z)-1-(5-(2-hydroxypropan-2-yl)-3-(2-isopropyl-5-methylphenyl)-4-oxothiazolidin-2-ylidene)-3-(4-(1-(4-(trifluoromethoxy)phenyl)-1H-1,2,4-triazol-3-yl)phenethyl)urea] |  |  |  |  | pest or weed control at 50 µg/cm2 ([1]; Table ABC (FB)): 50 to 100%; pest or weed control at 50 µg/cm2 ([2]; Table ABC (FB)): 50 to 100%
6 | Cc1ccccc1N1C(=O)CS/C1=N\C(=O)NCCc1cccc(-c2ncn(-c3ccc(OC(F)(F)F)cc3)n2)c1 [P74, (Z)-1-(4-oxo-3-(o-tolyl)thiazolidin-2-ylidene)-3-(3-(1-(4-(trifluoromethoxy)phenyl)-1H-1,2,4-triazol-3-yl)phenethyl)urea] | 50 to 100% | 50 to 100% |  |  | 
7 | Cc1ccccc1NC(=S)NC(=O)NCCCCc1cccc(-c2ncn(-c3ccc(OC(F)(F)F)cc3)n2)c1 [PC170, 1-(o-tolylcarbamothioyl)-3-[4-[3-[1-[4-(trifluoromethoxy)phenyl]-1H-1,2,4-triazol-3-yl]phenyl]butyl]urea] |  |  | 50 to 100% | 0 to 50% | 
8 | CC(C)c1ccccc1N1C(=O)CS/C1=N\C(=O)NCCCc1ccc(-c2ncn(-c3ccc(OC(F)(F)F)cc3)n2)cc1 [P94, P197, (Z)-1-(3-(2-isopropylphenyl)-4-oxothiazolidin-2-ylidene)-3-(3-(4-(1-(4-(trifluoromethoxy)phenyl)-1H-1,2,4-triazol-3-yl)phenyl)propyl)urea] | 50 to 100% | 50 to 100% |  |  | 
9 | Cc1ccc(C(C)C)c(N2/C(=N/C(=O)NCCc3ccc(-c4ncn(-c5ccc(OC(F)(F)F)cc5)n4)cc3)SCC2C)c1 (stereo not drawn) [P58, (Z)-1-(3-(2-isopropyl-5-methylphenyl)-4-methylthiazolidin-2-ylidene)-3-(4-(1-(4-(trifluoromethoxy)phenyl)-1H-1,2,4-triazol-3-yl)phenethyl)urea] | 50 to 100% | 50 to 100% |  |  | 
10 | COc1ccc(C(C)C)c(NC(=S)NC(=O)NCCCCc2ccc(-c3ncn(-c4ccc(OC(F)(F)F)cc4)n3)cc2)c1 [PC156] |  |  | 50 to 100% | 50 to 100% | 
11 | Cc1ccc(C(C)C)c(N2C(=O)CS/C2=N\C(=O)NC(C)(C)Cc2ccc(-c3ncn(-c4ccc(OC(F)(F)F)cc4)n3)cc2)c1 [FB52, (Z)-1-(3-(2-isopropyl-5-methylphenyl)-4-oxothiazolidin-2-ylidene)-3-(2-methyl-1-(4-(1-(4-(trifluoromethoxy)phenyl)-1H-1,2,4-triazol-3-yl)phenyl)propan-2-yl)urea] |  |  |  |  | pest or weed control at 50 µg/cm2 ([1]; Table ABC (FB)): 50 to 100%; pest or weed control at 50 µg/cm2 ([2]; Table ABC (FB)): 50 to 100%
12 | CCc1ccccc1-n1c(=O)n(CC)s/c1=N\C(=O)NCCc1ccc(-c2ncn(-c3ccc(OC(F)(F)F)cc3)n2)cc1 [FB10, (Z)-1-(2-ethyl-4-(2-ethylphenyl)-3-oxo-1,2,4-thiadiazolidin-5-ylidene)-3-(4-(1-(4-(trifluoromethoxy)phenyl)-1H-1,2,4-triazol-3-yl)phenethyl)urea] |  |  |  |  | pest or weed control at 50 µg/cm2 ([1]; Table ABC (FB)): 50 to 100%; pest or weed control at 50 µg/cm2 ([2]; Table ABC (FB)): 50 to 100%
13 | COc1ccc(NC(=S)NC(=O)NCc2cccc(-c3ncn(-c4ccc(OC(F)(F)F)cc4)n3)c2)c(C)c1 [FB19, 1-[(4-methoxy-2-methyl-phenyl)carbamothioyl]-3-[[3-[1-[4-(trifluoromethoxy)phenyl]-1H-1,2,4-triazol-3-yl]phenyl]methyl]urea] |  |  |  |  | pest or weed control at 50 µg/cm2 ([1]; Table ABC (FB)): 50 to 100%; pest or weed control at 50 µg/cm2 ([2]; Table ABC (FB)): 50 to 100%
14 | CC(C)c1ccccc1N1C(=O)CS/C1=N\C(=O)NCCCCc1cccc(-c2ncn(-c3ccc(OC(F)(F)F)cc3)n2)c1 [P172, (Z)-1-(3-(2-isopropylphenyl)-4-oxothiazolidin-2-ylidene)-3-(4-(3-(1-(4-(trifluoromethoxy)phenyl)-1H-1,2,4-triazol-3-yl)phenyl)butyl)urea] | 50 to 100% | 50 to 100% |  |  | 
15 | CCCc1ccc(C)cc1NC(=S)NC(=O)NCCCc1cccc(-c2ncn(-c3ccc(OC(F)(F)F)cc3)n2)c1 [PC125, 1-[(5-methyl-2-propyl-phenyl)carbamothioyl]-3-[3-[3-[1-[4-(trifluoromethoxy)phenyl]-1H-1,2,4-triazol-3-yl]phenyl]propyl]urea] |  |  | 50 to 100% | 50 to 100% | 
16 | CCc1ccc(C)cc1N1C(=O)CS/C1=N\C(=O)NCc1ccc(-c2ncn(-c3ccc(OC(F)(F)F)cc3)n2)cc1 [P7, (Z)-1-(3-(2-ethyl-5-methylphenyl)-4-oxothiazolidin-2-ylidene)-3-(4-(1-(4-(trifluoromethoxy)phenyl)-1H-1,2,4-triazol-3-yl)benzyl)urea] | 50 to 100% | 50 to 100% |  |  | 
17 | Cc1ccc(NC(=S)NC(=O)NCCCc2cccc(-c3ncn(-c4ccc(OC(F)(F)F)cc4)n3)c2)c(C(C)C)c1 [PC128, 1-[(2-isopropyl-4-methyl-phenyl)carbamothioyl]-3-[3-[3-[1-[4-(trifluoromethoxy)phenyl]-1H-1,2,4-triazol-3-yl]phenyl]propyl]urea] |  |  | 50 to 100% | 50 to 100% | 
18 | CCC(CNC(=O)/N=C1\SCC(=O)N1c1cc(C)ccc1C(C)C)c1ccc(-c2ncn(-c3ccc(OC(F)(F)F)cc3)n2)cc1 (stereo not drawn) [P364, (Z)-1-(3-(2-isopropyl-5-methylphenyl)-4-oxothiazolidin-2-ylidene)-3-(2-(4-(1-(4-(trifluoromethoxy)phenyl)-1H-1,2,4-triazol-3-yl)phenyl)butyl)urea] | 50 to 100% | 50 to 100% |  |  | 
19 | Cc1cccc(C)c1NC(=S)NC(=O)NCCCCc1ccc(-c2ncn(-c3ccc(OC(F)(F)F)cc3)n2)cc1 [PC152, 1-[(2,6-dimethylphenyl)carbamothioyl]-3-[4-[4-[1-[4-(trifluoromethoxy)phenyl]-1H-1,2,4-triazol-3-yl]phenyl]butyl]urea] |  |  | 50 to 100% | 50 to 100% | 
20 | Cc1ccccc1N1C(=O)CS/C1=N\C(=O)NCCCCc1cccc(-c2ncn(-c3ccc(OC(F)(F)F)cc3)n2)c1 [P170, (Z)-1-(4-oxo-3-(o-tolyl)thiazolidin-2-ylidene)-3-(4-(3-(1-(4-(trifluoromethoxy)phenyl)-1H-1,2,4-triazol-3-yl)phenyl)butyl)urea] | 50 to 100% | 0% |  |  | 
21 | CCc1ccccc1NC(=S)NC(=O)NCCc1ccc(-c2ncn(-c3ccc(OC(F)(F)F)cc3)n2)cc1C [FB5, 1-[(2-ethylphenyl)carbamothioyl]-3-[2-[2-methyl-4-[1-[4-(trifluoromethoxy)phenyl]-1H-1,2,4-triazol-3-yl]phenyl]ethyl]urea] |  |  |  |  | pest or weed control at 50 µg/cm2 ([1]; Table ABC (FB)): 50 to 100%; pest or weed control at 50 µg/cm2 ([2]; Table ABC (FB)): 50 to 100%
22 | CCc1cccc(C)c1N1C(=O)CS/C1=N\C(=O)NCc1cccc(-c2ncn(-c3ccc(OC(F)(F)F)cc3)n2)c1 [FB30, (Z)-1-(3-(2-ethyl-6-methylphenyl)-4-oxothiazolidin-2-ylidene)-3-(3-(1-(4-(trifluoromethoxy)phenyl)-1H-1,2,4-triazol-3-yl)benzyl)urea] |  |  |  |  | pest or weed control at 50 µg/cm2 ([1]; Table ABC (FB)): 50 to 100%; pest or weed control at 50 µg/cm2 ([2]; Table ABC (FB)): 50 to 100%
23 | Cc1ccccc1NC(=S)NC(=O)NCCCc1ccc(-c2ncn(-c3ccc(OC(F)(F)F)cc3)n2)cc1 [PC92, 1-(o-tolylcarbamothioyl)-3-[3-[4-[1-[4-(trifluoromethoxy)phenyl]-1H-1,2,4-triazol-3-yl]phenyl]propyl]urea] |  |  | 50 to 100% | 50 to 100% | 
24 | CC(C)c1ccccc1NC(=S)NC(=O)NCCCCc1ccc(-c2ncn(-c3ccc(OC(F)(F)F)cc3)n2)cc1 [PC146, 1-[(2-isopropylphenyl)carbamothioyl]-3-[4-[4-[1-[4-(trifluoromethoxy)phenyl]-1H-1,2,4-triazol-3-yl]phenyl]butyl]urea] |  |  | 50 to 100% | 50 to 100% | 
